# From patent publication US11684616B2, “Azalactam compounds as HPK1 inhibitors” (PFIZER INC., priority 2020, dated 2023)
# What was measured:
# [1] = tested on: Phospho-SLP-76 (Ser376) in Jurkat cells; assay: Phospho-SLP-76 (Ser376) HTRF assay in anti-CD3 stimulated Jurkat cells; format: cell-based; conditions: Homo sapiens, Jurkat, 30 min pre-treatment, anti-CD3 stimulation 15 min, read-out: pSLP76 IC50
# Method: Cell Based Assays Phospho-SLP-76 (Ser376) Homogeneous Time Resolved Fluorescence (HTRF) Assay
# Jurkat cells were seeded at 90,000 cells/well in 90 uL of RPMI1640 growth medium containing 10% FBS and incubated at 37° C. with 5% CO2 overnight. The following day, compounds were serially diluted from a 10 mM top dose for an 11-point 3-fold dilution curve in DMSO. Compounds were intermediately diluted 1:100 into growth media prior to diluting 1:10 on cells for final concentration 10 μM to 0.1 nM in 0.1% DMSO. After 30 min pre-treatment with compounds, the cells were stimulated using 200 μg/mL of F(ab)2 complexed anti-CD3 (clone UCTH1) for 15 min at 37° C. with 5% CO2. Stimulation was stopped with ice cold PBS and cells were harvested by centrifugation before lysis in Cisbio lysis buffer (Cisbio, Bedford, Mass.). Lysates were transferred to white, low-volume plates containing anti-phospho-SLP-76-Cryptate plus anti-phospho-SLP-76-d2 HTRF antibodies and incubated overnight at room temperature protected from light according to the manufacturer's protocol (Cisbio, Bedford, Mass.). HTRF was measured on a Perkin Elmer Envision and IC50 values were calculated by concentration-response curve fitting utilizing four-parameter nonlinear regression analyses.
# [2] = target: human full-length autophosphorylated recombinant HPK1 (Homo sapiens (Human), UniProt Q92918); assay: HPK1 biochemical enzyme assay (chelation-enhanced fluorescence, CHEF); conditions: 0.5 nM HPK1, 45 μM ATP, Morrison fit
# Method: HPK1 Biochemical Enzyme Assay
# HPK1 enzyme inhibition was measured by using the fluorescence-based chelation-enhanced fluorescence (CHEF) method (1), and by using a proprietary fluorescent peptide substrate, in which a cysteine residue is alkylated with a sulfonamido-oxine-based derivative to afford an amino acid termed C-Sox (CSx). […] Initial reaction velocities were determined by following the peptide fluorescence (λex=360 nm, λem=500 nm) at 30° C. for 15 min in a Tecan M1000 plate reader (Tecan Group Ltd., Mannedorf, Zurich, Switzerland).
# Production of Autophosphorylated Full-Length Recombinant HPK1
# The DNA sequence encoding full-length human HPK1 (Genbank NM_001042600.2) was synthesized at GenScript and contained a limited number of silent base changes to eliminate certain restriction endonuclease enzyme recognition sites, and fused to a DNA sequence encoding a Tobacco Etch Virus (TEV)-cleavable N-terminal polyhistidine purification tag. A recombinant baculovirus was prepared by using the Bac-to-Bac method (InVitrogen) and was used to infect 9 L of Sf21 insect cells. All purification steps were carried out at 4° C. Cells containing recombinant HPK1 were lysed in 50 mM HEPES-NaOH, pH 7.5, 250 mM NaCl, 1 mM tris(2-carboxyethyl)phosphine (TCEP), 10 μM leupeptin (Sigma), 10 μM E-64 (Sigma), and one ‘EDTA-free’ protease inhibitor tablet (Roche) per 75 mL buffer, centrifuged at 15,000×g for 1 h and the supernatant passed over 5 mL of ProBond IMAC resin (InVitrogen). After washing, HPK1 was eluted with 12.5 mL of 50 mM HEPES-NaOH, pH 7.5, 400 mM NaCl, 250 mM imidazole-HCl pH 7.5, 1 mM TCEP, 2 μM leupeptin, and 2 μM E-64. The eluted HPK1 was dialyzed overnight against 0.8 L of 50 mM HEPES-NaOH, pH 7.5, 400 mM NaCl, 20 mM imidazole-HCl pH 7.5, 1 mM TCEP, 2 μM leupeptin, 2 μM E-64, 2 mM ATP-NaOH pH 7.3, 5 mM MgCl2 and 1 mg TEV (this step simultaneously allows for reduction of the imidazole concentration in preparation for the subsequent reverse IMAC chromatography step, removal of the polyhistidine purification tag by TEV protease, and autophosphorylation of HPK1 in the presence of MgATP). The de-tagged and autophosphorylated HPK1 was adjusted to 40 mM imidazole-HCl, pH 7.5, and passed through a 10 mL column of ProBond resin similarly equilibrated. […] The peak fractions containing HPK1 were pooled and concentrated to approximately 2.5 mL by using a centrifugal concentrator (Millipore). The concentrated HPK1 was adjusted to 20% (v/v) glycerol by the addition of 50% (v/v) glycerol, resulting in a final formulation of 25 mM HEPES-NaOH pH 7.5, 250 mM NaCl, 0.25 mM TCEP and 20% (v/v) glycerol. […] Aliquots of the enzyme were flash frozen in liquid nitrogen and stored at −80° C. The final product contains a glycine-serine extension at the N-terminus of the full-length protein, as a result of the cloning strategy.
# Sequence of human full-length autophosphorylated recombinant HPK1 (Q92918 other isoform, or with tags, fused parts or gaps): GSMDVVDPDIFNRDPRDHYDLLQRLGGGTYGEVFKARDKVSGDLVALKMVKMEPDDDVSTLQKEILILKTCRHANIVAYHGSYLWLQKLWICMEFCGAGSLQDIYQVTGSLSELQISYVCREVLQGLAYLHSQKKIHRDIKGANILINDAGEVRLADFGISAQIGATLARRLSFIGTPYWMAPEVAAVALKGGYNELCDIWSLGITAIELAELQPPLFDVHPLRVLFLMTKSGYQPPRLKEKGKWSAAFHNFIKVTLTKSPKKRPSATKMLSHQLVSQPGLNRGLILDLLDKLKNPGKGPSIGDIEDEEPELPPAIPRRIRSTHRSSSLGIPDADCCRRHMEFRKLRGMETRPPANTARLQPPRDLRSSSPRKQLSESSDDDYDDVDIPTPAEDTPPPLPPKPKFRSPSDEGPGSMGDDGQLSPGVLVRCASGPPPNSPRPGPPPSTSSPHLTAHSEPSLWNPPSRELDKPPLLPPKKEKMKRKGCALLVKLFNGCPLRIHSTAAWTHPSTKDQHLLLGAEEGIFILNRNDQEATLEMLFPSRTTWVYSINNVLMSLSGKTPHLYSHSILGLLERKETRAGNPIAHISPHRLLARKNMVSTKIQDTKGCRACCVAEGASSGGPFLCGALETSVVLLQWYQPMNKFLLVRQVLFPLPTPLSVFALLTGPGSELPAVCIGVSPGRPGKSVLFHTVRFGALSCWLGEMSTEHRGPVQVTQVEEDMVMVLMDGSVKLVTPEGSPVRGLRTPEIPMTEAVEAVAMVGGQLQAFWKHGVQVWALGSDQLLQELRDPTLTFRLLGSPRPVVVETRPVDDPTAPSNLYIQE
Structure (SMILES),IC50 [1] [nM],Ki [2] [nM]
"C[C@H]1CCc2nnc(-c3cccc(N4Cc5c(cc(N(C)C)nc5C(C)(C)N)C4=O)n3)n21 (single isomer, unassigned) [Example 22, 4-(2-aminopropan-2-yl)-6-(dimethyl-amino)-2-{6-[(5ξ)-5-methyl-6,7-dihydro-5H-pyrrolo[2,1-c][1,2,4]triazol-3-yl]pyridin-2-yl}-2,3-dihydro-1H-pyrrolo[3,4-c]pyridin-1-one]",133,0.08
"C[C@@H]1CCc2nnc(-c3cccc(N4Cc5c(cc(N(C)C)nc5C(C)(C)N)C4=O)n3)n21 (single isomer, unassigned) [Example 23, 4-(2-aminopropan-2-yl)-6-(dimethyl-amino)-2-{6-[(5ξ)-5-methyl-6,7-dihydro-5H-pyrrolo[2,1-c][1,2,4]triazol-3-yl]pyridin-2-yl}-2,3-dihydro-1H-pyrrolo[3,4-c]pyridin-1-one]",329,5
"C[C@@H]1CCCN1c1cc2c(c([C@@H](C)N)n1)CN(c1cccc(-c3nnc4n3[C@H](C)CC4)n1)C2=O (single isomer, unassigned) [Example 25]",53,< 0.05
"C[C@H](N)c1nc(N2CCC[C@H]2C)cc2c1CN(c1cccc(-c3nnc4n3[C@@H](C)CC4)n1)C2=O (single isomer, unassigned) [Example 26]",133,0.72
"C[C@H](N)c1nc(N2CCC[C@H]2C)cc2c1CN(c1cccc(-c3nnc4n3[C@H](C)CC4)n1)C2=O (single isomer, unassigned) [Example 27]",56,< 0.05
"COC[C@@H](N)c1nc(C2(C)CC2)cc2c1CN(c1cccc(-c3nnc4n3[C@@H](CF)CC4)n1)C2=O (single isomer, unassigned) [Example 35]",181,0.3
"CC[C@@H](N)c1nc(C2(C)CC2)cc2c1CN(c1cccc(-c3nnc4n3[C@@H](CO)CC4)n1)C2=O (single isomer, unassigned) [Example 36]",110,0.074
"CC[C@@H](N)c1nc(C2(C)CC2)cc2c1CN(c1cccc(-c3nnc4n3[C@@H](C)CC4)n1)C2=O (single isomer, unassigned) [Example 37]",49,< 0.05
"COC[C@@H](N)c1nc(C2(C)CC2)cc2c1CN(c1cccc(-c3nnc4n3[C@@H](CO)CC4)n1)C2=O (single isomer, unassigned) [Example 38]",197,0.18
"CCCn1cnnc1-c1cccc(N2Cc3c(cc(N4CCC[C@H]4C)nc3[C@@H](C)N)C2=O)n1 (single isomer, unassigned) [Example 101]",118,0.17
"CCCn1cnnc1-c1cccc(N2Cc3c(cc(N4CCC[C@H]4C)nc3[C@H](C)N)C2=O)n1 (single isomer, unassigned) [Example 102]",107,0.11
"CCn1c(C)nnc1-c1cccc(N2Cc3c(cc(N4CCC[C@H]4C)nc3[C@@H](C)NC)C2=O)n1 (single isomer, unassigned) [Example 107]",140,1.02
"CCn1c(C)nnc1-c1cccc(N2Cc3c(cc(N4CCC[C@H]4C)nc3[C@H](C)NC)C2=O)n1 (single isomer, unassigned) [Example 108]",84,0.61
"CCn1cnnc1-c1cccc(N2Cc3c(cc(N4CCC[C@H]4C)nc3[C@H](C)NC)C2=O)n1 (single isomer, unassigned) [Example 109]",61,0.31
"CCn1cnnc1-c1cccc(N2Cc3c(cc(N4CCC[C@H]4C)nc3[C@@H](C)NC)C2=O)n1 (single isomer, unassigned) [Example 110]",42,0.09
"CCCn1cnnc1-c1cccc(N2Cc3c(cc(C4(C)CC4)nc3[C@@H](C)N)C2=O)n1 (single isomer, unassigned) [Example 117, 4-[(1ξ)-1-aminoethyl]-6-(1-methyl-cyclopropyl)-2-[6-(4-propyl-4H-1,2,4-triazol-3-yl)pyridin-2-yl]-2,3-dihydro-1H-pyrrolo[3,4-c]pyridin-1-one]",270,1.02
"CCCn1cnnc1-c1cccc(N2Cc3c(cc(C4(C)CC4)nc3[C@H](C)N)C2=O)n1 (single isomer, unassigned) [Example 118, 4-[(1ξ)-1-aminoethyl]-6-(1-methyl-cyclopropyl)-2-[6-(4-propyl-4H-1,2,4-triazol-3-yl)pyridin-2-yl]-2,3-dihydro-1H-pyrrolo[3,4-c]pyridin-1-one]",324,1.5
"CC[C@@H](N)c1nc(C2(C)CC2)cc2c1CN(c1cccc(-c3nncn3CC)n1)C2=O (single isomer, unassigned) [Example 119, 4-[(1ξ)-1-aminopropyl]-2-[6-(4-ethyl-4H-1,2,4-triazol-3-yl)pyridin-2-yl]-6-(1-methylcyclo-propyl)-2,3-dihydro-1H-pyrrolo[3,4-c]pyridin-1-one]",165,0.9
"CC[C@H](N)c1nc(C2(C)CC2)cc2c1CN(c1cccc(-c3nncn3CC)n1)C2=O (single isomer, unassigned) [Example 120, 4-[(1ξ)-1-aminopropyl]-2-[6-(4-ethyl-4H-1,2,4-triazol-3-yl)pyridin-2-yl]-6-(1-methylcyclo-propyl)-2,3-dihydro-1H-pyrrolo[3,4-c]pyridin-1-one]",531,2.97
"CCCn1cnnc1-c1cccc(N2Cc3c(cc(C4(C)CC4)nc3[C@H](N)CC)C2=O)n1 (single isomer, unassigned) [Example 121, 4-[(1ξ)-1-aminopropyl]-6-(1-methylcyclo-propyl)-2-[6-(4-propyl-4H-1,2,4-triazol-3-yl)pyridin-2-yl]-2,3-dihydro-1H-pyrrolo[3,4-c]pyridin-1-one]",553,4.12
"CCCn1cnnc1-c1cccc(N2Cc3c(cc(C4(C)CC4)nc3[C@@H](N)CC)C2=O)n1 (single isomer, unassigned) [Example 122, 4-[(1ξ)-1-aminopropyl]-6-(1-methylcyclo-propyl)-2-[6-(4-propyl-4H-1,2,4-triazol-3-yl)pyridin-2-yl]-2,3-dihydro-1H-pyrrolo[3,4-c]pyridin-1-one]",354,0.78
"CCN(C)c1cc2c(c([C@H](C)N)n1)CN(c1cccc(-c3nnc(C)n3CC)n1)C2=O (single isomer, unassigned) [Example 128, 4-[(1ξ)-1-aminoethyl]-6-[ethyl(methyl)amino]-2-[6-(4-ethyl-5-methyl-4H-1,2,4-triazol-3-yl)pyridin-2-yl]-2,3-dihydro-1H-pyrrolo[3,4-c]pyridin-1-one]",194,1.03
"CCN(C)c1cc2c(c([C@@H](C)N)n1)CN(c1cccc(-c3nncn3CC)n1)C2=O (single isomer, unassigned) [Example 129, 4-[(1ξ)-1-aminoethyl]-6-[ethyl(methyl)amino]-2-[6-(4-ethyl-4H-1,2,4-triazol-3-yl)pyridin-2-yl]-2,3-dihydro-1H-pyrrolo[3,4-c]pyridin-1-one]",97,0.28
